Results on six molecules are retold here after US12479791B2, “Cationic lipid” (Takeda Pharmaceutical Company Limited, priority 2018, dated 2025).

Data set [1] can be described thus: Analysis of luciferase mRNA-encapsulated lipid nanoparticle (Production Example 2). In kind it is physicochemical. To be noted: for Rate of encapsulation / Average particle size: luciferase mRNA lipid nanoparticle; for mRNA concentration: luciferase mRNA lipid nanoparticle dispersion after dialysis and filtration; for Average particle size: cationic lipid:DPPC:cholesterol:GS-020=60:10.6:28:1.4. The source says: The particle size of the lipid particle (in the composition) can be measured by a known approach. For example, the particle size can be calculated as a Z-average particle size by the cumulant analysis of an autocorrelation function using a particle size measurement apparatus Zetasizer Nano ZS (Malvern Instruments) based on a dynamic light scattering measurement technique. The particle size (average particle size) of the lipid particle (in the composition) is, for example, 10 to 200 nm, preferably 60 to 170 nm.
The concentration and rate of encapsulation of the nucleic acid (e.g., siRNA or mRNA) in the composition of the present invention can be measured by a known approach. For example, the nucleic acid is fluorescently labeled using Quant-iT™ RiboGreen® (Invitrogen Corp.), and the fluorescence intensity can be measured to determine the concentration and the rate of encapsulation. The concentration of the nucleic acid in the composition can be calculated using a calibration curve prepared from aqueous nucleic acid solutions having known concentrations. The rate of encapsulation can be calculated on the basis of the difference in fluorescence intensity between the presence and absence of addition of Triton-X 100 (surfactant for disrupting the lipid particle). The concentration of the nucleic acid in the composition refers to the total concentration of a nucleic acid encapsulated in the lipid particle and an unencapsulated nucleic acid. The rate of encapsulation refers to the ratio of the nucleic acid encapsulated in the lipid particle to all nucleic acids in the composition.
A lipid mixture (cationic lipid:DPPC:cholesterol:GS-020=60:10.6:28:1.4, molar ratio) was dissolved in 90% of EtOH and 10% of water to obtain an 8.5 mg/ml lipid solution. Luciferase mRNA (TriLink BioTechnologies, Inc.) was dissolved in a 10 mM 2-morpholinoethanesulfonic acid (MES) buffer solution (pH 4.0) to obtain a 0.22 mg/ml nucleic acid solution. The obtained lipid solution and nucleic acid solution were mixed at a flow rate ratio of 3 ml/min:6 ml/min at room temperature using NanoAssemblr apparatus (Precision NanoSystems Inc.) to obtain a dispersion containing a composition. The obtained dispersion was dialyzed against water at room temperature for 1 hour and against PBS at 4° C. for 48 hours using Slyde-A-Lyzer (molecular weight cutoff: 20 K, Thermo Fischer Scientific Inc.). Subsequently, the dialysate was filtered through a 0.2 μm syringe filter (Iwaki) and preserved at 4° C.

The test system of data set [2] is human colorectal cancer-derived cell line HCT116. The experiment in a line: Transfection of cultured cell with mRNA (luciferase luminescence). In kind it is cell-based. Conditions: 10 ng luciferase mRNA, 24 hours. As for the experimental part: A human colorectal cancer-derived cell line HCT116 was cultured at a cell density of 6000 cells/well in a 96-well plate. 24 hours later, 10 μl of the lipid particle containing 10 ng of luciferase mRNA was added to the medium. 24 hours after the addition of mRNA, a reagent of Picagene LT2.0 kit (Toyobo Co., Ltd.) was added to the culture plate of HCT116. The luminescence (count per sec (cps)) of luciferase was measured using a luminescence plate reader EnVision (PerkinElmer, Inc.).

In data set [1], `CCCCCCCC(=O)OCC(COC(=O)CCCCCN(C)C)(COC(=O)C(CCCCCC)CCCCCC)COC(=O)C(CCCCCC)CCCCCC` [Example 8] came in with a Rate of encapsulation of 91%, a mRNA concentration of 97 µg/mL and an Average particle size of 103 nm. Moreover, the “Average luminescence (cps) of 3 wells” value in data set [2] (Table 6 (PBS control 1040)) is 381693 cps.

In data set [1], `CCCCCCCC(=O)OCC(COC(=O)CCCCN(C)C)(COC(=O)CC(CCCCC)CCCCC)COC(=O)CC(CCCCC)CCCCC` [Example 9] returned a Rate of encapsulation of 94%, a mRNA concentration of 77 µg/mL and an Average particle size of 96 nm. Further, the “Average luminescence (cps) of 3 wells” value in data set [2] (Table 7 (PBS control 413)) turned out to be 63493 cps.

In data set [1], `CCCCCC(=O)OCC(COC(=O)CCCCC)(COC(=O)CCCCN(C)C)COC(=O)CCC(CCCCC)C(CCCCC)CCCCC` (stereo not drawn) [Example 12, 3-((5-(Dimethylamino)pentanoyl)oxy)-2,2-bis((hexanoyloxy)methyl)propyl 4,5-dipentyldecanoate] gave a Rate of encapsulation of 93%, a mRNA concentration of 160 µg/mL and an Average particle size of 134 nm. Also, in data set [2] (Table 9 (PBS control 80)), the “Average luminescence (cps) of 3 wells” value worked out at 62587 cps.

In data set [1], `CCCCCC(=O)OCC(COC(=O)CCCCC)(COC(=O)CCCCN(C)C)COC(=O)CCC(CCCC)C(CCCC)CCCC` (stereo not drawn) [Example 15, 3-((5-(Dimethylamino)pentanoyl)oxy)-2,2-bis((hexanoyloxy)methyl)propyl 4,5-dibutylnonanoate] returned a Rate of encapsulation of 99%, a mRNA concentration of 127 µg/mL and an Average particle size of 164 nm. In addition, the “Average luminescence (cps) of 3 wells” value in data set [2] (Table 10 (PBS control 293)) is recorded as 3293 cps.

Take `CCCCCCCC(=O)OCC(COC(=O)CCCCCCC)(COC(=O)CCCCN(C)C)COC(=O)CCC(CCC)C(CCC)CCC` (stereo not drawn) [Example 17, 3-((5-(Dimethylamino)pentanoyl)oxy)-2,2-bis((octanoyloxy)methyl)propyl 4,5-dipropyloctanoate]: in data set [1], the Rate of encapsulation came out at 87%, the mRNA concentration was determined as 116 µg/mL and the Average particle size was found to be 152 nm. The “Average luminescence (cps) of 3 wells” value in data set [2] (Table 10 (PBS control 293)) is given as 7987 cps.

For the molecule `CCCCCCCC(=O)OCC(COC(=O)CCCCCCC)(COC(=O)CCC(CCCC)C(CCCC)CCCC)COC(=O)NCCCCN(C)C` (stereo not drawn) [Example 18, 3-(((4-(Dimethylamino)butyl)carbamoyl)oxy)-2,2-bis((octanoyloxy)methyl)propyl 4,5-dibutylnonanoate], in data set [1], the Rate of encapsulation was found to be 99%, the mRNA concentration worked out at 103 µg/mL and the Average particle size worked out at 77 nm. For the same molecule, in data set [2] (Table 10 (PBS control 293)), the “Average luminescence (cps) of 3 wells” value is 12813 cps.
